According to patent US12091393B2, “Small molecule vaccine adjuvant for enhancing or prolonging immune response” (The Regents of the University of California, priority 2018, dated 2024):
Read-outs that look alike come from different tables or passages of the source.

Columns and labels:
[1] = system: NF-κB; assay: Measurement of NF-κB activation using THP1-Blue NF-κB cells (SEAP); type: cell-based; conditions: for NF-κB activity (SAR discussion, in words): evaluated in both the presence and absence of LPS
[2] = system: NF-κB; assay: cell-based NF-κB FRET assay; conditions: compound + LPS; two point normalized, compound 1 as 200%, LPS (10 ng/mL) as 100%
Excerpt: Site A was assigned the 4-substituent of thiazole ring, site B was the thiazole ring itself, site C was the central amide bond in the structure, site D was the benzene ring bearing 1,4-carboxyl and sulfamoyl group, site E was the sulfonamide functional group and site F was the amide substituent on the sulfamoyl group.

[3] = system: THP-1 cells; assay: Cell viability assay (MTT); type: cell-based; conditions: compound 5 μM alone, 18 h, normalized to DMSO as 100%
Outline: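 THP-1 cells in RPMI/10% FBS got compound at a final 5 μM (0.05% DMSO) for 18 h. MTT (0.5 mg/mL) was then added for 4 to 6 h, followed by SDS/HCl lysis overnight. Absorbance was read at 570 nm against 650 nm reference.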

[4] = compound 5 μM + LPS, 20 h, two point normalized, compound 1 as 200%, LPS (10 ng/mL) as 100%, read-out: NF-κB SEAP Compound + LPS % Activation
[5] = compound 5 μM alone, 20 h, two point normalized, compound 1 as 200%, LPS or DMSO as 100%, read-out: NF-κB SEAP Compound alone % Activation

Compound	activity at 5 µM [1, 4]	activity at 5 µM [1, 5]	NF-κB activity (SAR discussion, in words) [1]	NF-κB FRET Compound + LPS % Activation [2]	MTT Compound alone % Viability [3]	NF-κB SEAP Compound + LPS % Activation ([1]; compound 5 μM + LPS, 20 h, two point normalized, compound 1 as 200%, LPS (10 ng/mL) as 100%)	NF-κB SEAP Compound alone % Activation ([1]; compound 5 μM alone, 20 h, two point normalized, compound 1 as 200%, LPS or DMSO as 100%)
Cc1ccc(C)c(-c2ccc(NC(=O)c3ccc(S(=O)(=O)N4CCCCC4)cc3)cn2)c1 [Compound 18d, N-(6-(2,5-dimethylphenyl)pyridin-3-yl)-4-(piperidin-1-ylsulfonyl)benzamide]	97.2%	98.2%	none of these molecules that replaced the thiazole functionality were active	58.39%	95.35%	–	–
Cc1ccc(C)c(-c2csc(NC(=O)c3ccc(SC4CCCCC4)cc3)n2)c1 [Compound 49a, 4-(cyclohexylthio)-N-(4-(2,5-dimethylphenyl)thiazol-2-yl)benzamide]	114%	99.7%	none of these modifications at site D or E were tolerated	139.79%	85.22%	–	–
Cc1ccc(C)c(-c2csc(NC(=O)c3ccc(S(=O)(=O)C4CCCCC4)cc3)n2)c1 [Compound 49b, 4-(cyclohexylsulfonyl)-N-(4-(2,5-dimethylphenyl)thiazol-2-yl)benzamide]	114%	99.8%	none of these modifications at site D or E were tolerated	136.43%	81.81%	–	–
C#Cc1ccc(C)c(-c2csc(NC(=O)c3ccc(S(=O)(=O)N4CCCCC4)cc3)n2)c1 [Compound 12t, N-(4-(5-ethynyl-2-methylphenyl)thiazol-2-yl)-4-(piperidin-1-ylsulfonyl)benzamide]	90%	101%	inactive	88.20%	82.42%	–	–
Cc1ccc(C)c(-c2cccc(NC(=O)c3ccc(S(=O)(=O)N4CCCCC4)cc3)n2)c1 [Compound 18b, N-(6-(2,5-dimethylphenyl)pyridin-2-yl)-4-(piperidin-1-ylsulfonyl)benzamide]	–	99.6%	none of these molecules that replaced the thiazole functionality were active	146.10%	93.89%	–	–
Cc1ccccc1-c1csc(NC(=O)c2ccc(S(=O)(=O)N3CCCCC3)cc2)n1 [Compound 12b, 4-(piperidin-1-ylsulfonyl)-N-(4-(o-tolyl)thiazol-2-yl)benzamide]	105%	99.2%	inactive	100.13%	95.69%	–	–
CCSc1sc(NC(=O)c2ccc(S(=O)(=O)N3CCCCC3)cc2)nc1-c1cc(C)ccc1C [Compound 18k, N-(4-(2,5-dimethylphenyl)-5-(ethylthio)thiazo-2-yl)-4-(piperidin-1-ylsulfonyl)benzamide]	–	–	completely inactive	167.51%	111.74%	104.47%	100.75%
CCCN1CCN(S(=O)(=O)c2ccc(C(=O)Nc3nc(-c4cc(C)ccc4C)cs3)cc2)CC1 [Compound 58k, N-(4-(2,5-dimethylphenyl)thiazol-2-yl)-4-((4-propylpiperazin-1-yl)sulfonyl)benzamide]	110%	101%	inactive	100.84%	50.85%	–	–
CCN(c1ccccc1)S(=O)(=O)c1ccc(C(=O)Nc2nc(-c3cc(C)ccc3C)cs2)cc1 [Compound 58d, N-(4-(2,5-dimethylphenyl)thiazol-2-yl)-4-(N-ethyl-N-phenylsulfamoyl)benzamide]	89.8%	105%	inactive	74.73%	81.42%	–	–
Cc1ccc(-c2csc(NC(=O)c3ccc(S(=O)(=O)N4CCCCC4)cc3)n2)c(C)c1 [Compound 12m, N-(4-(2,4-dimethylphenyl)thiazol-2-yl)-4-(piperidin-1-ylsulfonyl)benzamide]	86.7%	98.5%	inactive	161.33%	101.40%	–	–
CC(C)(C)Cc1csc(NC(=O)c2ccc(S(=O)(=O)N3CCCCC3)cc2)n1 [Compound 12j, N-(4-neopentylthiazol-2-yl)-4-(piperidin-1-ylsulfonyl)benzamide]	93.9%	99.5%	None of these molecules had any NF-κB activity	110.62%	125.52%	–	–
Cc1ccc(C)c(-c2csc(NC(=O)c3ccc(S(=O)(=O)N4CCNCC4)cc3)n2)c1 [Compound 58i, N-(4-(2,5-dimethylphenyl)thiazol-2-yl)-4-(piperazin-1-ylsulfonyl)benzamide]	104%	101%	inactive	101.27%	75.86%	–	–
C#CC1CCN(S(=O)(=O)c2ccc(C(=O)Nc3nc(-c4cc(N=[N+]=[N-])ccc4C)cs3)cc2)CC1 [Compound 73, N-(4-(5-azido-2-methylphenyl)thiazol-2-yl)-4-((4-ethynylpiperidin-1-yl)sulfonyl)benzamide]	398%	363%	–	197.10%	84.53%	–	–
Cc1csc(NC(=O)c2ccc(S(=O)(=O)N3CCCCC3)cc2)n1 [Compound 12g, N-(4-methylthiazol-2-yl)-4-(piperidin-1-ylsulfonyl)benzamide]	101%	99.9%	None of these molecules had any NF-κB activity	110.48%	114.29%	–	–
C#CC1CCN(S(=O)(=O)c2ccc(C(=O)Nc3nc(-c4cc(C)ccc4C)cs3)cc2)CC1 [Compound 72d, N-(4-(2,5-dimethylphenyl)thiazol-2-yl)-4-((4-ethynylpiperidin-1-yl)sulfonyl)benzamide]	152%	112%	active	123.22%	83.27%	–	–
